Test results published in ChEMBL document CHEMBL3875189, “A benzo[b]thiophene-based selective type 4 S1P receptor agonist” (Bioorg Med Chem Lett, 2017).
Calls of active or inactive are those of the source. The rule behind the calls is not given here.

How the values were obtained:
[1] = target: T1, Sphingosine 1-phosphate receptor 5 (Homo sapiens, UniProt Q9H228); test: Agonist activity at recombinant human S1PR5 expressed in CHO cell membranes assessed as [35S]GTP-gammaS binding measured after 1.5 hrs by TopCount scintillation counting method
[2] = target: T2, Sphingosine 1-phosphate receptor 4 (Homo sapiens, UniProt O95977); test: Agonist activity at recombinant human S1PR4 expressed in CHO cell membranes assessed as [35S]GTP-gammaS binding measured after 1.5 hrs by TopCount scintillation counting method
T2 sequence (O95977 whole entry): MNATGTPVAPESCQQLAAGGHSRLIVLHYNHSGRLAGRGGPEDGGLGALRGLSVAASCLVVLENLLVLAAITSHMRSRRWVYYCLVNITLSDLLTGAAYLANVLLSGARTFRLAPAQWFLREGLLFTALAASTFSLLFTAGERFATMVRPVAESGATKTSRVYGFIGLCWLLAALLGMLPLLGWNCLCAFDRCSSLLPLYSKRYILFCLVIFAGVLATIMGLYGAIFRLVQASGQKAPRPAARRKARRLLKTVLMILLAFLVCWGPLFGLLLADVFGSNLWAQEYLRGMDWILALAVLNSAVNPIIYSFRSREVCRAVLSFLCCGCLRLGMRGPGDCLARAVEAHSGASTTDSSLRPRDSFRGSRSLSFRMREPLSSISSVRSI

[3] = target: T1, Sphingosine 1-phosphate receptor 5; test: Agonist activity at recombinant human S1PR5 expressed in CHO cell membranes assessed as [35S]GTP-gammaS binding measured after 1.5 hrs by TopCount scintillation counting method relative to S1P
[4] = target: T3, Sphingosine 1-phosphate receptor 1 (Homo sapiens, UniProt P21453); test: Agonist activity at recombinant human S1PR1 expressed in CHO cell membranes assessed as [35S]GTP-gammaS binding measured after 1.5 hrs by TopCount scintillation counting method
[5] = target: Sphingosine 1-phosphate receptor 2 (Homo sapiens, UniProt O95136); test: Agonist activity at recombinant human S1PR2 expressed in CHO cell membranes assessed as [35S]GTP-gammaS binding measured after 1.5 hrs by TopCount scintillation counting method
[6] = target: Sphingosine 1-phosphate receptor 3 (Homo sapiens, UniProt Q99500); test: Agonist activity at recombinant human S1PR3 expressed in CHO cell membranes assessed as [35S]GTP-gammaS binding measured after 1.5 hrs by TopCount scintillation counting method
[7] = target: T1, Sphingosine 1-phosphate receptor 5; test: Activation of human S1PR5 expressed in CHO cells assessed as suppression of forskolin-induced intracellular cAMP level at 1 to 10 uM measured after 15 mins by ELISA; type: functional, cell-based
[8] = target: T3, Sphingosine 1-phosphate receptor 1; test: Activation of human S1PR1 expressed in CHO cells assessed as suppression of forskolin-induced intracellular cAMP level at 1 to 10 uM measured after 15 mins by ELISA; type: functional, cell-based
[9] = target: T3, Sphingosine 1-phosphate receptor 1; test: Activation of human S1PR1 expressed in CHO cells assessed as ERK1/2 phosphorylation at 1 to 10 uM treated under serum-free condition post 1 day serum starvation measured after 10 to 30 mins by Western blot analysis; type: cell-based

T3 sequence (P21453 whole entry): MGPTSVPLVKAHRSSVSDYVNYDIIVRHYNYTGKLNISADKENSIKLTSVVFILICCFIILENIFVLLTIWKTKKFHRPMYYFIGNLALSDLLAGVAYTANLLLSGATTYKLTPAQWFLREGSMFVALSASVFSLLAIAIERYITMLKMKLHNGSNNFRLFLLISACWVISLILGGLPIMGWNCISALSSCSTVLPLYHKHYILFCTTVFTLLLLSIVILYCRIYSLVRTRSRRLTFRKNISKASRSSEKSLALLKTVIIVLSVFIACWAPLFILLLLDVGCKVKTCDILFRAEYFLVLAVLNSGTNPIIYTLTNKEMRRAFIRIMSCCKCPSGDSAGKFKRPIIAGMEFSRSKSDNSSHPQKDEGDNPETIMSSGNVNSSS
Sphingosine 1-phosphate receptor 2, sequence (O95136 whole entry): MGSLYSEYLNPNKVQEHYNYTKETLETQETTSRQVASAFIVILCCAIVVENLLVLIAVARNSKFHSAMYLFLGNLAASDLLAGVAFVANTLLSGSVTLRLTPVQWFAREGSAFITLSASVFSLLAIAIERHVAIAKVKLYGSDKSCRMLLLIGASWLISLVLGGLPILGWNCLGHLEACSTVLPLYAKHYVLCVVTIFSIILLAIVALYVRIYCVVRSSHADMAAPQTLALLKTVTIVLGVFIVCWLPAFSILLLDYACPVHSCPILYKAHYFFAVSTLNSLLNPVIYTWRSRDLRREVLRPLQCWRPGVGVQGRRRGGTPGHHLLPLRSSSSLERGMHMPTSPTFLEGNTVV
T1 sequence (Q9H228 whole entry): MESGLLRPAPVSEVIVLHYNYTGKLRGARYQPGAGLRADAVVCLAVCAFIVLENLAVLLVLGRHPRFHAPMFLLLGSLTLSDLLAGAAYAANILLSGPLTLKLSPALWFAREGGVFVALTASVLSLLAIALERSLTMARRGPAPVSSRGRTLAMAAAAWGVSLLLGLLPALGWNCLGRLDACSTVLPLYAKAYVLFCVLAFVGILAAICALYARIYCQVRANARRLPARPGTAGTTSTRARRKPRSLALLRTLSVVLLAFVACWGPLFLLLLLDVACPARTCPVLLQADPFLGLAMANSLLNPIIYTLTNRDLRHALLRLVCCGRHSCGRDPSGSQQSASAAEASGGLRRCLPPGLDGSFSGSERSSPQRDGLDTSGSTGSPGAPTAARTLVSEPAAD
Sphingosine 1-phosphate receptor 3, sequence (Q99500 whole entry): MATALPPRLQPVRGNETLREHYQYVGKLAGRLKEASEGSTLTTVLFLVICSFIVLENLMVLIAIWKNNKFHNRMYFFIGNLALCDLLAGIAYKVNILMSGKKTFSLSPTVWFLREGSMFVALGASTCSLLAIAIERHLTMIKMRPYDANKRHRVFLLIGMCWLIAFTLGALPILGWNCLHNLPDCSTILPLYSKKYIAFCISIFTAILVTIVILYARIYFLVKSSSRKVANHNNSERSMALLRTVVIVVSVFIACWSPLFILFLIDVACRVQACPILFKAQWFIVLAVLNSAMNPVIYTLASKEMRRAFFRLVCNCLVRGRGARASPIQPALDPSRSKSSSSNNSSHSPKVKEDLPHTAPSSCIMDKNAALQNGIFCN

| Structure (SMILES) | EC50 [1] | EC50 [2] | Efficacy [3] | other results |
| --- | --- | --- | --- | --- |
| CCc1ccccc1-c1cccc2cc(CNCC(=O)O)sc12 | > 100000 nM | > 100000 nM | – | – |
| O=C(O)Cc1ccc(NCc2cc3cc(-c4ccc5ccccc5c4)ccc3s2)cc1 | > 100000 nM | > 100000 nM | – | – |
| O=C(O)c1ccc(CNCc2cc3c(-c4ccc5ccccc5c4)cccc3s2)cc1 | 356 nM | > 100000 nM | 53% | EC50 [4]: > 100000 nM; EC50 [5]: > 100000 nM; EC50 [6]: > 100000 nM |
| O=C(O)C1CN(Cc2cc3cccc(-c4ccc5ccccc5c4)c3s2)C1 | 506 nM | > 100000 nM | 13% | – |
| O=C(O)CCCNCc1cc2cccc(-c3cccc(-c4ccccc4)c3)c2s1 | 49 nM | 331 nM | 18% | – |
| CCc1ccccc1-c1cccc2cc(CNCCC(=O)O)sc12 | 2590 nM | > 100000 nM | 15% | – |
| O=C(O)Cc1cccc(NCc2cc3c(-c4ccc5ccccc5c4)cccc3s2)c1 | 2140 nM | – | 23% | – |
| O=C(O)CNCc1cc2cc(-c3ccc4ccccc4c3)ccc2s1 | 350 nM | 350 nM | 63% | – |
| O=C(O)Cc1ccc(NCc2cc3c(-c4ccc5ccccc5c4)cccc3s2)cc1 | > 100000 nM | > 100000 nM | – | – |
| CCc1ccccc1-c1cccc2sc(CN3CC(C(=O)O)C3)cc12 | 21200 nM | > 100000 nM | 10% | – |
| O=C(O)c1ccc(CNCc2cc3cc(-c4ccc5ccccc5c4)ccc3s2)cc1 | > 100000 nM | > 100000 nM | – | – |
| NC(CNCc1cc2c(-c3ccc4ccccc4c3)cccc2s1)C(=O)O (configuration not stated) | 329 nM | 1100 nM | 34% | – |
| O=C(O)Cc1cccc(NCc2cc3cc(-c4ccc5ccccc5c4)ccc3s2)c1 | 769 nM | > 100000 nM | 12% | – |
| O=C(O)CCCCNCc1cc2cc(-c3ccc4ccccc4c3)ccc2s1 | 709 nM | 724 nM | 54% | – |
| CCc1ccccc1-c1cccc2cc(CNc3cccc(CC(=O)O)c3)sc12 | 3970 nM | 1190 nM | 36% | – |
| O=C(O)CCCNCc1cc2cccc(-c3ccc4c(c3)OCO4)c2s1 | 3130 nM | 3920 nM | 26% | – |
| COc1ccc2cc(-c3cccc4cc(CNCCCC(=O)O)sc34)ccc2c1 | > 100000 nM | 1930 nM | – | – |
| O=C(O)CCCNCc1cc2cc(-c3ccc4ccccc4c3)ccc2s1 | 143 nM | 165 nM | 65% | – |
| CCc1ccccc1-c1cccc2cc(CNCCCC(=O)O)sc12 | > 100000 nM | > 100000 nM | – | – |
| CCc1ccccc1-c1cccc2sc(CNCC(C)C(=O)O)cc12 (configuration not stated) | > 100000 nM | 10300 nM | – | – |

| Structure (SMILES) | EC50 [1] | EC50 [2] | Efficacy [3] | other results |
| --- | --- | --- | --- | --- |
| CCc1ccccc1-c1cccc2sc(CNCc3ccc(C(=O)O)cc3)cc12 | 6700 nM | > 100000 nM | 11% | – |
| CCc1ccccc1-c1cccc2sc(CNc3cccc(CC(=O)O)c3)cc12 | > 100000 nM | 470 nM | – | – |
| O=C(O)CCNCc1cc2cccc(-c3ccc4ccccc4c3)c2s1 | 280 nM | 187 nM | 36% | – |
| CC(CNCc1cc2cc(-c3ccc4ccccc4c3)ccc2s1)C(=O)O (configuration not stated) | 232 nM | 115 nM | 77% | – |
| CCc1ccccc1-c1cccc2sc(CNCCCC(=O)O)cc12 | > 100000 nM | 18300 nM | – | – |
| O=C(O)Cc1cccc(NCc2cc3cccc(-c4ccc5ccccc5c4)c3s2)c1 | 1670 nM | 816 nM | 22% | – |
| O=C(O)c1ccc(CNCc2cc3cccc(-c4ccc5ccccc5c4)c3s2)cc1 | 4510 nM | > 100000 nM | 23% | – |
| CCc1ccccc1-c1cccc2sc(CNCC(=O)O)cc12 | > 100000 nM | > 100000 nM | – | – |
| CCc1ccccc1-c1cccc2cc(CNCCCCC(=O)O)sc12 | 2490 nM | > 100000 nM | 16% | – |
| Cc1ccccc1-c1cccc2cc(CNCCCC(=O)O)sc12 | 3540 nM | 13500 nM | 7% | – |
| CCc1ccccc1-c1cccc2sc(CNc3ccc(CC(=O)O)cc3)cc12 | 4770 nM | 2570 nM | 9% | – |
| O=C(O)Cc1ccc(NCc2cc3cccc(-c4ccc5ccccc5c4)c3s2)cc1 | 4020 nM | 1430 nM | 32% | – |
| Cc1ccc(-c2cccc3cc(CNCCCC(=O)O)sc23)cc1 | 2810 nM | 19900 nM | 43% | – |
| O=C(O)CCNCc1cc2cc(-c3ccc4ccccc4c3)ccc2s1 | 25 nM | 38 nM | 78% | – |
| O=C(O)CCCNCc1cc2c(-c3ccc4ccccc4c3)cccc2s1 | 60 nM | 211 nM | 69% | EC50 [4]: > 100000 nM; EC50 [5]: > 100000 nM; EC50 [6]: > 100000 nM |
| O=C(O)CNCc1cc2cccc(-c3ccc4ccccc4c3)c2s1 | 272 nM | 1480 nM | 32% | – |
| O=C(O)CCCNCc1cc2cccc(-c3ccc(C(F)(F)F)cc3)c2s1 | 552 nM | 1900 nM | 15% | – |
| O=C(O)C1CN(Cc2cc3c(-c4ccc5ccccc5c4)cccc3s2)C1 | 175 nM | 1010 nM | 14% | – |
| Cc1cccc(-c2cccc3cc(CNCCCC(=O)O)sc23)c1 | 10300 nM | 9250 nM | 25% | – |
| CC(C)(C)c1ccc(-c2cccc3cc(CNCCCC(=O)O)sc23)cc1 | 4690 nM | 5070 nM | 26% | – |

| Structure (SMILES) | EC50 [1] | EC50 [2] | Efficacy [3] | other results |
| --- | --- | --- | --- | --- |
| O=C(O)CCCNCc1cc2cccc(-c3cccc4ccccc34)c2s1 | 2320 nM | 1980 nM | 25% | – |
| CCc1ccccc1-c1cccc2cc(CNCc3ccc(C(=O)O)cc3)sc12 | > 100000 nM | > 100000 nM | – | – |
| CCc1ccccc1-c1cccc2sc(CNCC(N)C(=O)O)cc12 (configuration not stated) | > 100000 nM | 57600 nM | – | – |
| O=C(O)C1CN(Cc2cc3cc(-c4ccc5ccccc5c4)ccc3s2)C1 | 22 nM | > 100000 nM | 50% | Activity [7]: Active; Activity [8]: Active; EC50 [4]: > 100000 nM; EC50 [5]: > 100000 nM; EC50 [6]: > 100000 nM; Activity [9]: Active |
| CCc1ccccc1-c1cccc2sc(CNCCC(=O)O)cc12 | > 100000 nM | > 100000 nM | – | – |
| CCc1ccccc1-c1cccc2cc(CN3CC(C(=O)O)C3)sc12 | > 100000 nM | > 100000 nM | – | – |
| CCc1ccccc1-c1cccc2cc(CNc3ccc(CC(=O)O)cc3)sc12 | 2100 nM | 3410 nM | 20% | – |
| CC(CNCc1cc2cccc(-c3ccc4ccccc4c3)c2s1)C(=O)O (configuration not stated) | 887 nM | 1020 nM | 32% | – |
| CCc1ccccc1-c1cccc2sc(CNCCCCC(=O)O)cc12 | > 100000 nM | 11100 nM | – | – |
| O=C(O)CCCNCc1cc2cccc(-c3cccc(C(F)(F)F)c3)c2s1 | 3070 nM | 693 nM | 39% | – |
| O=C(O)CCNCc1cc2c(-c3ccc4ccccc4c3)cccc2s1 | 31 nM | 433 nM | 75% | EC50 [4]: > 100000 nM; EC50 [5]: > 100000 nM; EC50 [6]: > 100000 nM |
| O=C(O)CNCc1cc2c(-c3ccc4ccccc4c3)cccc2s1 | 51 nM | 640 nM | 47% | EC50 [4]: > 100000 nM; EC50 [5]: > 100000 nM; EC50 [6]: > 100000 nM |
| O=C(O)CCCCNCc1cc2c(-c3ccc4ccccc4c3)cccc2s1 | 152 nM | 1080 nM | 47% | EC50 [4]: > 100000 nM; EC50 [5]: > 100000 nM; EC50 [6]: > 100000 nM |
| O=C(O)CCCNCc1cc2cccc(-c3ccc(-c4ccccc4)cc3)c2s1 | 6450 nM | 2060 nM | 10% | – |
| NC(CNCc1cc2cccc(-c3ccc4ccccc4c3)c2s1)C(=O)O (configuration not stated) | 1070 nM | 694 nM | 35% | – |
| CCc1ccccc1-c1cccc2cc(CNCC(N)C(=O)O)sc12 (configuration not stated) | 1560 nM | 3100 nM | 25% | – |
| NC(CNCc1cc2cc(-c3ccc4ccccc4c3)ccc2s1)C(=O)O (configuration not stated) | 728 nM | 541 nM | 69% | – |
| CCc1ccccc1-c1cccc2cc(CNCC(C)C(=O)O)sc12 (configuration not stated) | 4220 nM | > 100000 nM | 10% | – |
| O=C(O)CCCCNCc1cc2cccc(-c3ccc4ccccc4c3)c2s1 | 412 nM | 410 nM | 37% | – |
